How the values were obtained:
RON = RON (Homo sapiens, UniProt Q04912); assay: Inhibitory activity against RON, TR-FRET kinase assay; assay type: biochemical; conditions: TR-FRET enzyme assay
Protocol: In order to measure the inhibitory activity of each of the compounds of Examples against RON, the IC50 of each of the compounds was measured using Time-resolved fluorescence energy transfer (TR-FRET).
(§1) Specifically, the compound was prepared to a concentration of 1 mM in 100% DMSO and was diluted 10 times in a stepwise manner through 3-fold dilution. The compound (2 ul) diluted in a stepwise manner was added to a 96-well-plate containing 48 ul of a 1× kinase reaction buffer (50 mM HEPES (pH 7.4), 0.01% Tween-20, 5 mM DTT, 0.5 mM Na3VO4, 2 mM EGTA, 10 mM MgCl2).
The RON protein was diluted to a concentration of 49.3 nM in a RON storage buffer (50 mM Tris-HCl (pH 7.5), 150 mM NaCl, 0.5 mM EDTA, 0.02% Triton X-100), and then diluted again to a concentration of 0.4 nM in a 1×kinase reaction buffer. As a substrate cocktail, a RON-specific substrate mixed solution (40 uM ULight-labeled Poly GT, 100 nM ATP) was prepared at a concentration 2 times the final reaction concentration.
(§2) Thereafter, a 384-well-plate was prepared, and 2.5 μl of each of the diluted compounds of Examples was added to a corresponding well of experimental group wells, and 2.5 μl of a 4% DMSO solution was dispensed into high control wells and low control wells.
(§3) Thereafter, 2.5 μL of 0.4 nM RON was dispensed into each of the high control wells and the experimental group wells, and 2.5 μL of the 1× kinase reaction buffer was added to the low control wells, and all the wells were centrifuged at room temperature for 40 seconds at 1,000 RPM, and then incubated at room temperature for 20-30 minutes. Then, 5 μL of the substrate cocktail (2×) was dispensed into each well, and all the wells were centrifuged at room temperature for 40 seconds at 1,000 RPM, and then incubated at room temperature for 60 minutes. Thereafter, 5 μL of 30 mM EDTA was added to each well to terminate the reaction, and all the wells were then incubated again at room temperature for 5 minutes. Thereafter, 5 μL of a 4×phosphotyrosine antibody (Perkin Elmer) containing europium was added to each well, and all the wells were then incubated at room temperature for 60 minutes. After the incubation, the 384-well-plate was read with the Vison plate reader. In this case, the excitation wavelength was 340 nm, and the emission wavelength was 620 nm and 665 nm. The IC50 value of each compound of Examples was derived using the GraphPd Prism7 program.

cMET = cMET (Homo sapiens, UniProt P08581); assay: Inhibitory activity against MET (cMET), TR-FRET kinase assay; assay type: biochemical; conditions: TR-FRET enzyme assay
Protocol: In addition, in order to measure the enzyme activity inhibition for cMET, the evaluation was performed in the same manner as the enzyme activity inhibition measurement experiment for RON.
as §1, with “a 1×kinase” for “a 1× kinase”, “7.4), 0.05% BSA, 0.005%” for “7.4), 0.01%”, “Tween-20, 1” for “Tween-20, 5”, “mM MnCl2, 20” for “mM Na3VO4, 2 mM EGTA, 10”
The cMET protein was diluted to a concentration of 263 nM in a cMET storage buffer (50 mM Tris-HCl (pH 7.5), 150 mM NaCl, 0.05% Brij35, 1 mM DTT, 10% Glycerol), and then diluted again to a concentration of 2 nM in a 1×kinase reaction buffer. As a substrate cocktail, a MET-specific substrate mixed solution (5 uM TK peptide, 10 mM ATP) was prepared at a concentration 2 times the final reaction concentration.
as §2
as §3, with “of 2” for “of 0.4”, “nM cMET” for “nM RON”, “of 90” for “of 30”, “The […]” for “The IC50”

cMET, sequence (P08581 25-1390): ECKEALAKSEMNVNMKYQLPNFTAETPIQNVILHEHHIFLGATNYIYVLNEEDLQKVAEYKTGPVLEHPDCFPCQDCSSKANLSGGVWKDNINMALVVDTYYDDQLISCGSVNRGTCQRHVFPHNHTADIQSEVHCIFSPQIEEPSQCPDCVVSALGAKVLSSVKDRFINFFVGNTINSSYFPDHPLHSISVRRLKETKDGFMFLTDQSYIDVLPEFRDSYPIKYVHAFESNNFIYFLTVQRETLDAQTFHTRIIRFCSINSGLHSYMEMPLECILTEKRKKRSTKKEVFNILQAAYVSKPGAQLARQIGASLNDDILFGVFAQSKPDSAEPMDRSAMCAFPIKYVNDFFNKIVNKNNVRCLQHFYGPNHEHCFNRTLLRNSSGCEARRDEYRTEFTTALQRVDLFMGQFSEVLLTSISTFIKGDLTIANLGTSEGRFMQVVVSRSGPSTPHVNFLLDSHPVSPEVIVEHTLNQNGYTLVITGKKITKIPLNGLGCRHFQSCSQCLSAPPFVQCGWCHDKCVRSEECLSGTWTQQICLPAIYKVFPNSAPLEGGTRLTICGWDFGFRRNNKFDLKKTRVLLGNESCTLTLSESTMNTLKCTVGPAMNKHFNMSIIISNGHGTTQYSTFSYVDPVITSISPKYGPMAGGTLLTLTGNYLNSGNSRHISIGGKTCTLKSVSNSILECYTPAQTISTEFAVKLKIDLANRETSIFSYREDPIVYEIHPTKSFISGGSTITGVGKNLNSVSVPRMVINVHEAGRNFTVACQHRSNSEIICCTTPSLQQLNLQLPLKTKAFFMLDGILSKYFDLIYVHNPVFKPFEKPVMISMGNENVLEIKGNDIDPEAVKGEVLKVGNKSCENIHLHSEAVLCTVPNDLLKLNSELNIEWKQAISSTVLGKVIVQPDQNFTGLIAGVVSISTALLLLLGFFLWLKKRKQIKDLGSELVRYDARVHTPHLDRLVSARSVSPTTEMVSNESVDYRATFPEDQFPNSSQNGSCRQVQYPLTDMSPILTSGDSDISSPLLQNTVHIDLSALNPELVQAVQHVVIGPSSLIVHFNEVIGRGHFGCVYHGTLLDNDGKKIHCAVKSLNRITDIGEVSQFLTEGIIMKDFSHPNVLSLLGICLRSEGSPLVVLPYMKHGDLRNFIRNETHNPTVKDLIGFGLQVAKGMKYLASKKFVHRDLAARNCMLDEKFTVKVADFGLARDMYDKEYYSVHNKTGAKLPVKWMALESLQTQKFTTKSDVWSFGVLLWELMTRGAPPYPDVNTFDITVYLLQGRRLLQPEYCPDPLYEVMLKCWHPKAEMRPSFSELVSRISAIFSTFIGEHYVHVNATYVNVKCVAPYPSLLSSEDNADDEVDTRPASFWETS
RON, sequence (Q04912 25-1400, species assumed): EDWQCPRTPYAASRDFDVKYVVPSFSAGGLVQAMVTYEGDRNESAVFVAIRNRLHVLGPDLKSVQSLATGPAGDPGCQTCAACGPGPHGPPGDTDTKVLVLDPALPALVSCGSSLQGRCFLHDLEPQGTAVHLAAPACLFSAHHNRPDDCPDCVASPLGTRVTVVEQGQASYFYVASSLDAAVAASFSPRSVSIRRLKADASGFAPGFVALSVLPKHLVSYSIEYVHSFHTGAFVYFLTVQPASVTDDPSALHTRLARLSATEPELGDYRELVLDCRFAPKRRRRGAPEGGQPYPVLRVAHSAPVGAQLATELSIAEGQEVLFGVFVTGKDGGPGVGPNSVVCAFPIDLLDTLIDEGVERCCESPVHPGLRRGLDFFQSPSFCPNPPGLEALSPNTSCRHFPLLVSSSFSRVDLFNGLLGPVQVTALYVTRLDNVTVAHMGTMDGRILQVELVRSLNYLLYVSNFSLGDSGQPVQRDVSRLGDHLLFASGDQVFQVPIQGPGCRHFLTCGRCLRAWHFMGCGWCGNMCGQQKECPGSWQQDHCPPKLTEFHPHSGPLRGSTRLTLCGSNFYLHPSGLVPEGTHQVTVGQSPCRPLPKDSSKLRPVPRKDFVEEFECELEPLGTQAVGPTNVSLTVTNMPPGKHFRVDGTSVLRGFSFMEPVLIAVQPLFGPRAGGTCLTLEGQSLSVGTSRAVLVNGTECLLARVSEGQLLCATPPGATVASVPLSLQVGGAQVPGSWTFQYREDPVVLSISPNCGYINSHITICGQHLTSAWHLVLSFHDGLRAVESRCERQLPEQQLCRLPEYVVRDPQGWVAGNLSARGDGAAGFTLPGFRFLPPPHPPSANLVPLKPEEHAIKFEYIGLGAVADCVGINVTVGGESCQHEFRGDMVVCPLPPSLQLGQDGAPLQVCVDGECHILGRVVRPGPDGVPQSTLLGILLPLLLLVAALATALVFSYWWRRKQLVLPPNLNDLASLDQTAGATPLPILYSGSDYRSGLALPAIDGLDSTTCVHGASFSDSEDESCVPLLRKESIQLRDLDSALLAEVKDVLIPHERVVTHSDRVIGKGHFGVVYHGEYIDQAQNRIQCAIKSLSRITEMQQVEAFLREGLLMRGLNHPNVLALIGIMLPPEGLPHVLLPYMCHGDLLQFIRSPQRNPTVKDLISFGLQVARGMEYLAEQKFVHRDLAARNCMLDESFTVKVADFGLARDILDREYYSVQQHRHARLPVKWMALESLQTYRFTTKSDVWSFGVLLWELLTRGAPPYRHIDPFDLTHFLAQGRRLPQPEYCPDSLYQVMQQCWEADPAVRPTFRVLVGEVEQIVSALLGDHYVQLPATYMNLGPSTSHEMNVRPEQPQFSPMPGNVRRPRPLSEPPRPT

For `CCc1c(C(=O)Nc2ccc(Oc3ccnc(N)c3Cl)c(F)c2)cnn1-c1cncnc1` [Example 1, N-(4-((2-amino-3-chloropyridin-4-yl)oxy)-3-fluorophenyl)-5-ethyl-1-(pyrimidin-5-yl)-1H-pyrazole-4-carboxamide], the IC50 (RON) was 50 to 500 nM and the IC50 (cMET) was 500 to 5000 nM.

`Nc1nccc(Oc2ccc(NC(=O)c3cnn(-c4ccccn4)c3C(F)(F)F)cc2F)c1Cl` [Example 2, N-(4-((2-amino-3-chloropyridin-4-yl)oxy)-3-fluorophenyl)-1-(pyridin-2-yl)-5-(trifluoromethyl)-1H-pyrazole-4-carboxamide] was tested, and the IC50 (RON) was under 50 nM and the IC50 (cMET) was 500 to 5000 nM.

With `Nc1nccc(Oc2ccc(NC(=O)c3cnn(-c4nc(-c5ccccc5)cs4)c3C(F)(F)F)cc2F)c1Cl` [Example 3, N-(4-((2-amino-3-chloropyridin-4-yl)oxy)-3-fluorophenyl)-1-(4-phenylthiazol-2-yl)-5-(trifluoromethyl)-1H-pyrazole-4-carboxamide] the IC50 (RON) was over 5000 nM and the IC50 (cMET) was over 5000 nM.

`CCc1c(C(=O)Nc2ccc(Oc3ccnc(N)c3Cl)c(F)c2)cnn1-c1ccncc1` [Example 4, N-(4-((2-amino-3-chloropyridin-4-yl)oxy)-3-fluorophenyl)-5-ethyl-1-(pyridin-4-yl)-1H-pyrazole-4-carboxamide] was tested, and the IC50 (RON) was 500 to 5000 nM and the IC50 (cMET) was over 5000 nM.

`CCc1c(C(=O)Nc2ccc(Oc3ccnc(N)c3Cl)c(F)c2)cnn1-c1cccnc1` [Example 5, N-(4-((2-amino-3-chloropyridin-4-yl)oxy)-3-fluorophenyl)-5-ethyl-1-(pyridin-3-yl)-1H-pyrazole-4-carboxamide] gave an IC50 (RON) of 50 to 500 nM and an IC50 (cMET) of 500 to 5000 nM.

Work on `Nc1nccc(Oc2ccc(NC(=O)c3cnn(-c4cncnc4)c3C(F)(F)F)cc2F)c1Cl` [Example 6, N-(4-((2-amino-3-chloropyridin-4-yl)oxy)-3-fluorophenyl)-1-(pyrimidin-5-yl)-5-(trifluoromethyl)-1H-pyrazole-4-carboxamide] yielded an IC50 (RON) of 50 to 500 nM and an IC50 (cMET) of over 5000 nM.

For `Cc1c(C(=O)Nc2ccc(Oc3ccnc(N)c3Cl)c(F)c2)cnn1-c1cncnc1` [Example 7, N-(4-((2-amino-3-chloropyridin-4-yl)oxy)-3-fluorophenyl)-5-methyl-1-(pyrimidin-5-yl)-1H-pyrazole-4-carboxamide], the IC50 (RON) was 50 to 500 nM and the IC50 (cMET) was over 5000 nM.

`Nc1nccc(Oc2ccc(NC(=O)c3cnn(-c4ncccc4F)c3C(F)(F)F)cc2F)c1Cl` [Example 8, N-(4-((2-amino-3-chloropyridin-4-yl)oxy)-3-fluorophenyl)-1-(3-fluoropyridin-2-yl)-5-(trifluoromethyl)-1H-pyrazole-4-carboxamide] was tested, and the IC50 (RON) was under 50 nM and the IC50 (cMET) was 500 to 5000 nM.

Work on `Cc1cccnc1-n1ncc(C(=O)Nc2ccc(Oc3ccnc(N)c3Cl)c(F)c2)c1C(F)(F)F` [Example 9, N-(4-((2-amino-3-chloropyridin-4-yl)oxy)-3-fluorophenyl)-1-(3-methylpyridin-2-yl)-5-(trifluoromethyl)-1H-pyrazole-4-carboxamide] yielded an IC50 (RON) of under 50 nM and an IC50 (cMET) of 500 to 5000 nM.

Work on `Nc1nccc(Oc2ccc(NC(=O)c3cnn(-c4ncccc4Cl)c3C(F)(F)F)cc2F)c1Cl` [Example 10, N-(4-((2-amino-3-chloropyridin-4-yl)oxy)-3-fluorophenyl)-1-(3-chloropyridin-2-yl)-5-(trifluoromethyl)-1H-pyrazole-4-carboxamide] yielded an IC50 (RON) of under 50 nM and an IC50 (cMET) of 500 to 5000 nM.

`Nc1nccc(Oc2ccc(NC(=O)c3cnn(-c4ncccc4C(F)(F)F)c3C(F)(F)F)cc2F)c1Cl` [Example 11, N-(4-((2-amino-3-chloropyridin-4-yl)oxy)-3-fluorophenyl)-5-(trifluoromethyl)-1-(3-(trifluoromethyl)pyridin-2-yl)-1H-pyrazole-4-carboxamide] showed an IC50 (RON) of 50 to 500 nM and an IC50 (cMET) of 500 to 5000 nM.

With `Cc1ccnc(-n2ncc(C(=O)Nc3ccc(Oc4ccnc(N)c4Cl)c(F)c3)c2C(F)(F)F)c1` [Example 12, N-(4-((2-amino-3-chloropyridin-4-yl)oxy)-3-fluorophenyl)-1-(4-methylpyridin-2-yl)-5-(trifluoromethyl)-1H-pyrazole-4-carboxamide] the IC50 (RON) was 50 to 500 nM and the IC50 (cMET) was 500 to 5000 nM.

`Nc1nccc(Oc2ccc(NC(=O)c3cnn(-c4ccc(F)cn4)c3C(F)(F)F)cc2F)c1Cl` [Example 13, N-(4-((2-amino-3-chloropyridin-4-yl)oxy)-3-fluorophenyl)-1-(5-fluoropyridin-2-yl)-5-(trifluoromethyl)-1H-pyrazole-4-carboxamide] gave an IC50 (RON) of 50 to 500 nM and an IC50 (cMET) of over 5000 nM.

`Nc1nccc(Oc2ccc(NC(=O)c3cnn(-c4cc(Cl)ccn4)c3C(F)(F)F)cc2F)c1Cl` [Example 14, N-(4-((2-amino-3-chloropyridin-4-yl)oxy)-3-fluorophenyl)-1-(4-chloropyridin-2-yl)-5-(trifluoromethyl)-1H-pyrazole-4-carboxamide] showed an IC50 (RON) of 50 to 500 nM and an IC50 (cMET) of over 5000 nM.

In the case of `COc1cccnc1-n1ncc(C(=O)Nc2ccc(Oc3ccnc(N)c3Cl)c(F)c2)c1C(F)(F)F` [Example 15, N-(4-((2-amino-3-chloropyridin-4-yl)oxy)-3-fluorophenyl)-1-(3-methoxypyridin-2-yl)-5-(trifluoromethyl)-1H-pyrazole-4-carboxamide], the IC50 (RON) is reported as 50 to 500 nM and the IC50 (cMET) is reported as 500 to 5000 nM.

With `Cc1ccc(-n2ncc(C(=O)Nc3ccc(Oc4ccnc(N)c4Cl)c(F)c3)c2C(F)(F)F)nc1` [Example 16, N-(4-((2-amino-3-chloropyridin-4-yl)oxy)-3-fluorophenyl)-1-(5-methylpyridin-2-yl)-5-(trifluoromethyl)-1H-pyrazole-4-carboxamide] the IC50 (RON) was 50 to 500 nM and the IC50 (cMET) was over 5000 nM.

`Cc1cccc(-n2ncc(C(=O)Nc3ccc(Oc4ccnc(N)c4Cl)c(F)c3)c2C(F)(F)F)n1` [Example 17, N-(4-((2-amino-3-chloropyridin-4-yl)oxy)-3-fluorophenyl)-1-(6-methylpyridin-2-yl)-5-(trifluoromethyl)-1H-pyrazole-4-carboxamide] showed an IC50 (RON) of 50 to 500 nM and an IC50 (cMET) of 500 to 5000 nM.

With `Nc1nccc(Oc2ccc(NC(=O)c3cnn(-c4cccnc4)c3C(F)(F)F)cc2F)c1Cl` [Example 18, N-(4-((2-amino-3-chloropyridin-4-yl)oxy)-3-fluorophenyl)-1-(pyridin-3-yl)-5-(trifluoromethyl)-1H-pyrazole-4-carboxamide] the IC50 (RON) was 50 to 500 nM and the IC50 (cMET) was 500 to 5000 nM.

`Nc1nccc(Oc2ccc(NC(=O)c3cnn(-c4ccncc4)c3C(F)(F)F)cc2F)c1Cl` [Example 19, N-(4-((2-amino-3-chloropyridin-4-yl)oxy)-3-fluorophenyl)-1-(pyridin-4-yl)-5-(trifluoromethyl)-1H-pyrazole-4-carboxamide] showed an IC50 (RON) of 50 to 500 nM and an IC50 (cMET) of 500 to 5000 nM.

In the case of `Nc1nccc(Oc2ccc(NC(=O)c3cnn(-c4cccnn4)c3C(F)(F)F)cc2F)c1Cl` [Example 20, N-(4-((2-amino-3-chloropyridin-4-yl)oxy)-3-fluorophenyl)-1-(pyridazin-3-yl)-5-(trifluoromethyl)-1H-pyrazole-4-carboxamide], the IC50 (RON) is reported as under 50 nM and the IC50 (cMET) is reported as 500 to 5000 nM.
